These results are taken from patent publication US20110288007A1 (priority 2008, published 2011).

Some test systems named below: B. thailandensis E264; F. novicida U112; F. tularensis LVS; B. cepacia J2540.
Holding throughout (assay type): cell-based
What all share (design): key: —: No effect (i.e. no significant difference between control [culture with no peptide] and culture with peptide); *: ~1 log effect (i.e. culture with peptide that's growth was ~1 log less than control); **: 1-2 log effect; ***: 2-4 log effect; ****: >4 log effect; “”: “Immediate effect” (i.e. loss of growth by at least 1 log compared to control immediately on addition of peptide [T = 0]

Assay [1] has as its system Y. pseudotuberculosis IP32593.
Another assay relates to S. aureus ATCC29213. Conditions: peptide 102 μg/mL, reduction of number of bacteria vs control.
Assay [2] concerns B. anthracis Vegetative UM23-Cl2.
Assay [3] relates to Y. pseudotuberculosis YPIII.

On to GIGKFLHSAKKFGKAFVGEIMNS [Magainin II], for which the “Effect of peptides after 4 hours incubation with bacteria, B. thailandensis E264” value with B. thailandensis E264 is recorded as “—”. The “Effect of peptides after 4 hours incubation with bacteria, Y. pseudotuberculosis IP32593” value in assay [1] was “—”. In addition, the “Effect of peptides after 4 hours incubation with bacteria, F. novicida U112” value with F. novicida U112 was “—”. For the same sequence, in the assay on F. tularensis LVS, the “Effect of peptides after 4 hours incubation with bacteria, F. tularensis LVS” value is “—”. The “Effect of peptides after 4 hours incubation with bacteria, S. aureus ATCC29213” value in the assay on S. aureus ATCC29213 was “**** (>4 log effect)”.

Consider “LLGDFFRKSKEKIGKEFKRIVQRIKDFLRNLVPRTES [LL-37]”, for which the “Effect of peptides after 4 hours incubation with bacteria, B. anthracis Vegetative UM23-Cl2” value in assay [2] is recorded as “—”. Further, the “Effect of peptides after 4 hours incubation with bacteria, B. cepacia J2540” value in the assay with B. cepacia J2540 is given as “—”. Also, the “Effect of peptides after 4 hours incubation with bacteria, B. thailandensis E264” value in the assay with B. thailandensis E264 was “—”. In addition, the “Effect of peptides after 4 hours incubation with bacteria, Y. pseudotuberculosis IP32593” value in assay [1] is on record as “—”. The “Effect of peptides after 4 hours incubation with bacteria, Y. pseudotuberculosis YPIII” value in assay [3] is “—”. In addition, in the assay with F. novicida U112, the “Effect of peptides after 4 hours incubation with bacteria, F. novicida U112” value is listed as “—”. Moreover, in the assay with F. tularensis LVS, the “Effect of peptides after 4 hours incubation with bacteria, F. tularensis LVS” value is “—”. Besides, in the assay with S. aureus ATCC29213, the “Effect of peptides after 4 hours incubation with bacteria, S. aureus ATCC29213” value is reported as “—”.
